Test results published in US10899723B2, “Heterocyclic containing cyclopropyl FXR modulators” (Hepagene Therapeutics (HK) Limited, priority 2016, dated 2021).
Structures can show the parent of a compound that is named as a salt.

Experiments:
FXR = target: T1, FXR (Homo sapiens, UniProt Q96RI1); assay: FXR Transactivation Assay (pBIND-FXR / pGL4.35 luciferase reporter in HEK293T); type: cell-based; details: HEK293T cells
T1 construct: expressed in transfected cells; host or cells: HEK293T
T1 sequence (Q96RI1 1-486): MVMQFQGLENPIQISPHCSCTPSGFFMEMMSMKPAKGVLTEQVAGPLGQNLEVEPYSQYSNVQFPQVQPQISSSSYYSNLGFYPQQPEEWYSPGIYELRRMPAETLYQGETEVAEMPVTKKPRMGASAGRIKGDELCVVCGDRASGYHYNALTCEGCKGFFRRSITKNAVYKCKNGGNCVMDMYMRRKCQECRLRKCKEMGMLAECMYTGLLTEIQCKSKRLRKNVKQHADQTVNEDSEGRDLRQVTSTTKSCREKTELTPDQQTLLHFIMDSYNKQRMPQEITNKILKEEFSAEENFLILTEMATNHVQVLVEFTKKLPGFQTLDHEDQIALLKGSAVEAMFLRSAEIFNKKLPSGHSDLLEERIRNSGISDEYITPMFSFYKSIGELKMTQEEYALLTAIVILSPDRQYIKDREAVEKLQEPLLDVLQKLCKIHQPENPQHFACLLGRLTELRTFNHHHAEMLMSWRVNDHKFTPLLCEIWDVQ
Protocol: FXR Transactivation Assay
pGL4.35 [luc2P/9XGAL4 UAS/Hygro]
DMEM medium, high glucose
Fetal Bovine Serum (FBS, heat-inactivated)
Penicillin-Streptomycin (10000 U/ml, 100 ml)
DMEM, High Glucose, HEPES, no Phenol Red
Opti-MEM® I Reduced Serum Medium
Steady-Glo™ Luciferase Assay System
TransIT-293 Transfection Reagent
GW4064 as a positive control
(§1) • 1. Hek293T cells were plated at 1.1*10^6/ml into a 100 mm dish. • 2. Cells were transfected with 8.4 μg of pBind-FXR, 1.26 μg of the reporter vector pGL4.35 (Promega). Cells were incubated at 37° C. under 5% CO2 atmosphere. • 3. All of compounds were 3-fold serial diluted from 10 mM stock for 10 doses in DMSO. • 4. Transfer compound dilutions into 384 well assay plates using liquid workstation. • 5. Seed 25 ul HEK293T cells into 384 well assay plate (prepared step 4) at 0.6*10^5/ml. Cells were incubated at 37° C. under 5% CO2 atmosphere overnight. • 6. Add 25 ul steady-Glo™ Luciferase Assay Reagent into each well of 384-well assay plate. • 7. Record the luminescence value on Envision 2104 plate reader. • 8. Calculate EC50 by fitting % Activity values and log of compound concentrations to nonlinear regression (dose response−variable slope) with Graphpad 5.0. FXR Coactivator Assay Reagents: LanthaScreen™ TR-FRET Farnesoid X Receptor Coactivator Assay GW4064 as a positive control Process: • 1. All of compounds were 3-fold serial diluted from 10 mM stock for 10 doses in DMSO. • 2. Dilute each 100× agonist serial dilution to 2× using Complete Coregulator buffer G. • 3. Transfer 10 μl of each of the 2× agonist serial dilutions to 384 well assay plates. • 4. […] Incubate at room temperature protected from light. • 7. Read the plate at wavelengths of 520 nm and 495 nm on Envision 2104 plate reader. • 8. Calculate the TR-FRET ratio by dividing the emission signal at 520 nm by the emission signal at 495 nm. • 9. Calculate EC50 by fitting % Activity values and log of compound concentrations to nonlinear regression (dose response−variable slope) with Graphpad 5.0.

FXR-LBD = target: T2, FXR-LBD (Homo sapiens, UniProt Q96RI1); assay: FXR Coactivator Assay (LanthaScreen TR-FRET); type: biochemical
T2 construct: Add 5 μl of 4×FXR-LBD to 384 well assay plates; purchased
T2 sequence (Q96RI1 262-486 limits assumed): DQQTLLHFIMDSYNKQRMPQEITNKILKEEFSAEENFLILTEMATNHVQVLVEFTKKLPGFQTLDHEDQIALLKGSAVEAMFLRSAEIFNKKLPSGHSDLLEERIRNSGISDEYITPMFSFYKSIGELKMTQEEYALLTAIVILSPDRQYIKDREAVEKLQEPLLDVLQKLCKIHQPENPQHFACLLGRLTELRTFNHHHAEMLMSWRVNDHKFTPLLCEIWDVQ
Protocol: as §1

EC50 (FXR) [nM]	EC50 (FXR-LBD) [nM]	Compound
101 to 400	–	CC1(c2cncc(C(=O)O)c2)CC1c1ccc(OCc2c(-c3c(Cl)cccc3Cl)noc2C2CC2)cc1Cl (single isomer, unassigned) [IV-06-1, 5-[2-(2-Chloro-4-[[5-cyclopropyl-3-(2,6-dichlorophenyl)-1,2-oxazol-4-yl]methoxy]phenyl)-1-methylcyclopropyl] pyridine-3-carboxylic Acid]
10 to 100	–	CC1(c2cncc(C(=O)O)c2)CC1c1ccc(OCc2c(-c3c(Cl)cccc3Cl)noc2C2CC2)cc1Cl (single isomer, unassigned) [IV-06-2, 5-[2-(2-Chloro-4-[[5-cyclopropyl-3-(2,6-dichlorophenyl)-1,2-oxazol-4-yl]methoxy]phenyl)-1-methylcyclopropyl] pyridine-3-carboxylic Acid]
10 to 100	–	N#CC1(c2ccc(OCc3c(-c4c(Cl)cccc4Cl)noc3C3CC3)cc2Cl)CC1c1cccc(C(=O)O)c1 (single isomer, unassigned) [VII-03-2, 3-[2-(2-Chloro-4-[[5-cyclopropyl-3-(2,6-dichlorophenyl)-1,2-oxazol-4-yl]methoxy]phenyl)-2-cyanocyclopropyl] benzoic Acid]
–	401 to 5000	CC(C)c1onc(-c2c(Cl)cccc2Cl)c1COc1ccc(C2CC2(CN)c2ccc(C(=O)O)cc2)c(Cl)c1 (stereo not shown) [Compound V2-01, 4-[1-(Aminomethyl)-2-(2-chloro-4-[[3-(2,6-dichlorophenyl)-5-(propan-2-yl)-1,2-oxazol-4-yl]methoxy]phenyl)cyclopropyl] benzoic Acid Hydrochloride]
401 to 5000	–	N#CC1(c2cccc(C(=O)O)c2)CC1c1ccc(OCc2c(-c3c(Cl)cccc3Cl)noc2C2CC2)cc1Cl (stereo not shown) [Compound V-03]
401 to 5000	–	N#CC1(c2cncc(C(=O)O)c2)CC1c1ccc(OCc2c(-c3c(Cl)cccc3Cl)noc2C2CC2)cc1Cl (stereo not shown) [Compound V-04, 5-[2-(2-Chloro-4-[[5-cyclopropyl-3-(2,6-dichlorophenyl)-1,2-oxazol-4-yl]methoxy]phenyl)-1-cyanocyclopropyl] pyridine-3-carboxylic Acid]
101 to 400	–	CC1(c2cccc(C(=O)O)c2)CC1c1ccc(OCc2c(-c3c(Cl)cncc3Cl)noc2C2CC2)cc1Cl (stereo not shown) [IV-04]
401 to 5000	–	CC1(c2ccnc(C(=O)O)c2)CC1c1ccc(OCc2c(-c3c(Cl)cccc3Cl)noc2C2CC2)cc1Cl (stereo not shown) [IV-07]
101 to 400	–	CC1(c2cncc(C(=O)O)c2)CC1c1ccc(OCc2c(-c3c(Cl)cncc3Cl)noc2C2CC2)cc1Cl (stereo not shown) [IV-08]
101 to 400	–	CC1(c2cncc(C(=O)O)c2)CC1c1ccc(OCc2c(-c3ccccc3OC(F)(F)F)noc2C2CC2)cc1Cl (stereo not shown) [IV-09, 5-[2-[2-Chloro-4-([5-cyclopropyl-3-[2-(trifluoromethoxy)phenyl]-1,2-oxazol-4-yl]methoxy)phenyl]-1-methylcyclopropyl] pyridine-3-carboxylic Acid]
101 to 400	–	CC1(c2cncc(C(=O)O)c2)CC1c1ccc(OCc2c(-c3ccccc3OC(F)F)noc2C2CC2)cc1Cl (stereo not shown) [IV-10]
10 to 100	–	CC(C)c1cnn(-c2c(Cl)cccc2Cl)c1COc1ccc(C2CC2(C)c2cncc(C(=O)O)c2)c(Cl)c1 (stereo not shown) [IV-11]
401 to 5000	–	CC1(c2cncc(C(=O)NCC(=O)O)c2)CC1c1ccc(OCc2c(-c3c(Cl)cccc3Cl)noc2C2CC2)cc1Cl (stereo not shown) [IV-12, 2-([5-[2-(2-Chloro-4-[[5-cyclopropyl-3-(2,6-dichlorophenyl)-1,2-oxazol-4-yl]methoxy]phenyl)-1-methylcyclopropyl]pyridin-3-yl] formamido) Acetic Acid]
–	10 to 100	CC1(c2cncc(C(=O)NCCS(=O)(=O)O)c2)CC1c1ccc(OCc2c(-c3c(Cl)cccc3Cl)noc2C2CC2)cc1Cl (stereo not shown) [IV-13]
401 to 5000	–	CC(C)c1onc(-c2c(Cl)cccc2Cl)c1COc1ccc(C2CC2(C)c2ccc3c(c2)c(C(=O)O)nn3C(C)C)c(Cl)c1 (stereo not shown) [IV-14]
101 to 400	–	COc1cc(C(=O)O)cc2sc(C3(C)CC3c3ccc(OCc4c(-c5c(Cl)cccc5Cl)noc4C(C)C)cc3Cl)nc12 (stereo not shown) [IV-16]
101 to 400	–	CC1(c2nc3ccc(C(=O)O)cc3s2)CC1c1ccc(OCc2c(-c3c(Cl)cccc3Cl)noc2C2CC2)cc1Cl (stereo not shown) [IV-17]

EC50 (FXR) [nM]	EC50 (FXR-LBD) [nM]	Compound
–	401 to 5000	Cc1cc(C(=O)O)cc2sc(C3(C)CC3c3ccc(OCc4c(-c5c(Cl)cccc5Cl)noc4C4CC4)cc3Cl)nc12 (stereo not shown) [IV-18]
–	101 to 400	CC1(c2ncc(C(=O)O)s2)CC1c1ccc(OCc2c(-c3c(Cl)cccc3Cl)noc2C2CC2)cc1Cl (stereo not shown) [IV-19, 2-(2-(2-Chloro-4-((5-cyclopropyl-3-(2,6-dichlorophenyl)isoxazol-4-yl)methoxy)phenyl)-1-methylcyclopropyl) thiazole-5-carboxylic Acid]
10 to 100	–	CC1(c2ccc(OCc3c(-c4c(Cl)cccc4Cl)noc3C3CC3)cc2Cl)CC1c1cccc(C(=O)O)c1 (stereo not shown) [VI-03]
10 to 100	–	CC1(c2ccc(OCc3c(-c4c(Cl)cccc4Cl)noc3C3CC3)cc2Cl)CC1c1ccnc(C(=O)O)c1 (stereo not shown) [VI-06]
101 to 400	–	CC1(c2ccc(OCc3c(-c4c(Cl)cccc4Cl)noc3C3CC3)cc2Cl)CC1c1cc(C(=O)O)ccn1 (stereo not shown) [VI-07]
10 to 100	–	CC(C)c1onc(-c2c(Cl)cccc2Cl)c1COc1ccc(C2(C)CC2c2nc3c(F)cc(C(=O)O)cc3s2)c(Cl)c1 (stereo not shown) [VI-08]
10 to 100	–	CC1(c2ccc(OCc3c(-c4c(Cl)cccc4Cl)noc3C3CC3)cc2Cl)CC1c1nc2c(F)cc(C(=O)O)cc2s1 (stereo not shown) [VI-09]
–	101 to 400	COc1cc(C(=O)O)cc2sc(C3CC3(C)c3ccc(OCc4c(-c5c(Cl)cccc5Cl)noc4C(C)C)cc3Cl)nc12 (stereo not shown) [VI-10]
10 to 100	–	CC(C)c1onc(-c2c(Cl)cccc2Cl)c1COc1ccc(C2(C)CC2c2nc3ccc(C(=O)O)cc3s2)c(Cl)c1 (stereo not shown) [VI-11]
10 to 100	–	CC(C)c1onc(-c2c(Cl)cccc2Cl)c1COc1ccc(C2(C)CC2c2ncc(C(=O)O)s2)c(Cl)c1 (stereo not shown) [VI-12, 2-(2-(2-Chloro-4-((3-(2,6-dichlorophenyl)-5-isopropylisoxazol-4-yl)methoxy)phenyl)-2-methylcyclopropyl) thiazole-5-carboxylic Acid]
10 to 100	–	CC1(c2ccc(OCc3c(-c4c(Cl)cccc4Cl)noc3C3CC3)cc2Cl)CC1c1ncc(C(=O)O)s1 (stereo not shown) [VI-13]
401 to 5000	–	N#CC1(c2ccc(OCc3c(-c4c(Cl)cccc4Cl)noc3C3CC3)cc2Cl)CC1c1cncc(C(=O)O)c1 (stereo not shown) [VII-05, 5-(2-(4-((3-(2,6-Dichlorophenyl)-5-cyclopropylisoxazol-4-yl)methoxy)-2-chlorophenyl)-2-cyanocyclopropyl) pyridine-3-carboxylic Acid]
101 to 400	–	COc1cc(C(=O)O)cc2sc(C3CC3(C#N)c3ccc(OCc4c(-c5c(Cl)cccc5Cl)noc4C4CC4)cc3Cl)nc12 (stereo not shown) [VII-06, 2-[2-(2-Chloro-4-[[5-cyclopropyl-3-(2,6-dichlorophenyl)-1,2-oxazol-4-yl]methoxy]phenyl)-2-cyanocyclopropyl]-4-methoxy-1,3-benzothiazole-6-carboxylic Acid]
401 to 5000	–	CC(C)n1nc(C(=O)O)cc1C1CC1(C#N)c1ccc(OCc2c(-c3c(Cl)cccc3Cl)noc2C2CC2)cc1Cl (stereo not shown) [VII-07]
10 to 100	–	Cc1ccc(C(=O)O)cc1C1CC1(C#N)c1ccc(OCc2c(-c3c(Cl)cccc3Cl)noc2C2CC2)cc1Cl (stereo not shown) [VII-08]
101 to 400	–	COc1ccc(C(=O)O)cc1C1CC1(C#N)c1ccc(OCc2c(-c3c(Cl)cccc3Cl)noc2C2CC2)cc1Cl (stereo not shown) [VII-09]
10 to 100	–	Cc1cc(C(=O)O)cc(C2CC2(C#N)c2ccc(OCc3c(-c4c(Cl)cccc4Cl)noc3C3CC3)cc2Cl)c1 (stereo not shown) [VII-10]
